Source: the supplement of paper PMC10307832

Columns and labels:
Assay in all cases: relative viability (nuclei count vs DMSO), 5 days (fraction); higher = more cells survive
[1] = compound: O=C(O)c1ccc2c(c1)nc(Nc1cccc(Cl)c1)c1ccncc12 [Silmitasertib] + CC1(C)CCC(c2ccc(Cl)cc2)=C(CN2CCN(c3ccc(C(=O)NS(=O)(=O)c4ccc(N[C@H](CCN5CCOCC5)CSc5ccccc5)c(S(=O)(=O)C(F)(F)F)c4)cc3)CC2)C1 [Navitoclax] (partner 0.5 µM)
Procedure, shortened: (§1)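 Relative viability was taken as the ratio of nuclei in treated wells to nuclei in vehicle wells. Lung cancer cell lines in 1536-well plates received compounds by pin tool one day after seeding, either one drug alone or a fixed anchor-drug dose plus five library-drug doses (not always all listed) in √10 steps. Nuclei were counted on 4× images after 5 days of treatment, and values are medians of duplicate plates.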

[2] = compound: O=C(O)c1ccc2c(c1)nc(Nc1cccc(Cl)c1)c1ccncc12 [Silmitasertib] + COc1cc2c(Oc3ccc(NC(=O)C4(C(=O)Nc5ccc(F)cc5)CC4)cc3F)ccnc2cc1OCCCN1CCOCC1 [Foretinib] (partner 0.25 µM)
Procedure, shortened: as §1

[3] = compound: O=C(O)c1ccc2c(c1)nc(Nc1cccc(Cl)c1)c1ccncc12 [Silmitasertib] + Cc1cc(Nc2cc(N3CCN(C)CC3)nc(Sc3ccc(NC(=O)C4CC4)cc3)n2)n[nH]1 [Tozasertib] (partner 0.1 µM)
Procedure, shortened: as §1

[4] = compound: O=C(O)c1ccc2c(c1)nc(Nc1cccc(Cl)c1)c1ccncc12 [Silmitasertib] + Cc1nc(Nc2ncc(C(=O)Nc3c(C)cccc3Cl)s2)cc(N2CCN(CCO)CC2)n1 [Dasatinib] (partner 0.075 µM)
Procedure, shortened: as §1

[5] = compound: O=C(O)c1ccc2c(c1)nc(Nc1cccc(Cl)c1)c1ccncc12 [Silmitasertib] + Nc1ncn([C@H]2C[C@H](O)[C@@H](CO)O2)c(=O)n1 [Decitabine] (partner 2 µM)
Procedure, shortened: as §1

Row | Cell Line | relative viability ([1]; first compound 0.04 µM) | relative viability ([1]; first compound 0.4 µM) | relative viability ([1]; first compound 1.265 µM) | relative viability ([1]; first compound 4 µM) | relative viability ([2]; first compound 0.04 µM) | relative viability ([2]; first compound 0.4 µM) | relative viability ([2]; first compound 1.265 µM) | relative viability ([2]; first compound 4 µM) | relative viability ([3]; first compound 0.04 µM) | relative viability ([3]; first compound 0.4 µM) | relative viability ([3]; first compound 1.265 µM) | relative viability ([3]; first compound 4 µM) | relative viability ([4]; first compound 0.04 µM) | relative viability ([4]; first compound 0.4 µM) | relative viability ([4]; first compound 1.265 µM) | relative viability ([4]; first compound 4 µM) | relative viability ([5]; first compound 0.04 µM) | relative viability ([5]; first compound 0.4 µM) | relative viability ([5]; first compound 1.265 µM) | relative viability ([5]; first compound 4 µM)
1 | NCI-H322M | 1.23 | 0.932 | 0.799 | 0.479 | 1.01 | 0.836 | 0.623 | 0.544 | 0.51 | 0.505 | 0.377 | 0.342 | 0.243 | 0.294 | 0.282 | 0.294 | 0.727 | 0.686 | 0.674 | 0.649
2 | NCI-H441 | 0.463 |  | 0.509 | 0.385 | 0.871 |  | 0.67 | 0.277 | 0.61 |  | 0.512 | 0.472 | 0.651 |  | 0.532 | 0.333 | 0.207 |  | 0.216 | 0.231
3 | NCI-H460 | 1.26 | 1.2 | 1.3 | 1.04 | 1.04 | 0.961 | 1.07 | 1.15 | 0.556 | 0.119 | 0.405 | 0.523 | 0.56 | 0.445 | 0.44 | 0.448 | 0.551 | 0.511 | 0.478 | 0.363
4 | NCI-H520 | 1.11 | 0.917 | 1.04 | 0.863 | 0.742 | 1 | 0.934 | 0.711 | 0.443 | 0.429 | 0.42 | 0.394 | 0.274 | 0.215 | 0.196 | 0.193 | 0.586 | 0.578 | 0.528 | 0.502
5 | NCI-H596 | 1.09 | 0.882 | 0.902 | 0.787 | 0.817 | 0.74 | 0.787 | 0.871 | 0.967 | 0.735 | 0.624 | 0.799 | 0.617 | 0.563 | 0.463 | 0.497 | 0.909 | 1.05 | 1.05 | 0.785
6 | NCI-H647 | 1.05 | 0.826 | 0.85 | 0.57 | 1.21 | 1.04 | 0.874 | 1.06 | 0.324 | 0.211 | 0.196 | 0.175 | 0.185 | 0.266 | 0.171 | 0.0776 | 0.411 | 0.387 | 0.344 | 0.288
7 | NCI-H727 | 0.425 | 0.343 | 0.365 | 0.275 | 0.915 | 0.689 | 0.695 | 1.03 | 0.584 | 0.62 | 0.681 | 0.609 | 0.326 | 0.358 | 0.272 | 0.379 | 1.09 | 0.844 | 0.544 | 0.691
8 | NCI-H838 | 1.36 |  | 1.29 | 0.929 | 1.16 |  | 0.996 | 0.589 | 0.289 |  | 0.257 | 0.222 | 0.323 | 0.325 | 0.372 | 0.254 | 0.459 | 0.427 | 0.402 | 0.341
9 | NCI-H1355 | 1.04 |  | 0.965 | 0.771 | 0.944 |  | 0.822 | 0.916 | 0.545 |  | 0.528 | 0.46 | 0.766 |  | 0.578 | 0.485 | 0.343 |  | 0.371 | 0.285
10 | NCI-H1395 | 1.2 | 0.816 | 1.1 | 0.947 | 0.894 | 0.805 | 0.97 | 0.972 | 0.742 | 0.559 | 0.68 | 0.623 | 0.471 | 0.387 | 0.431 | 0.414 | 0.756 | 0.725 | 0.684 | 0.683
11 | NCI-H1437 | 1.11 |  | 0.906 | 0.828 | 1.28 | 1.16 | 1.24 | 0.942 | 0.397 | 0.406 | 0.3 | 0.241 | 0.483 | 0.376 | 0.272 | 0.322 | 0.578 | 0.533 | 0.445 | 0.411
12 | NCI-H1650 | 1.38 | 1.24 | 0.695 | 0.414 | 1.47 | 1.34 | 0.902 | 0.653 | 0.466 | 0.517 | 0.272 | 0.235 | 0.358 | 0.35 | 0.248 | 0.242 | 0.525 | 0.419 | 0.315 | 0.254
13 | NCI-H1651 | 1.01 | 1.06 | 1.09 | 1.02 | 0.951 | 0.892 | 0.812 | 0.732 | 0.785 | 0.556 | 0.541 | 0.443 | 0.49 | 0.387 | 0.448 | 0.384 | 0.65 | 0.542 | 0.197 | 0.692
14 | NCI-H1666 | 1.02 | 0.853 | 0.663 | 0.492 | 0.954 | 0.964 | 0.693 | 0.6 | 0.734 | 0.626 | 0.543 | 0.446 | 0.837 | 0.664 | 0.623 | 0.615 | 0.804 | 0.67 | 0.498 | 0.656
15 | NCI-H1734 | 0.884 |  | 0.781 | 0.737 | 0.877 | 0.8 | 0.781 | 0.753 | 0.275 | 0.261 | 0.274 | 0.243 | 0.498 | 0.422 | 0.471 | 0.487 | 0.613 | 0.52 | 0.536 | 0.412
16 | NCI-H1755 | 1.04 | 0.942 | 0.991 | 0.959 | 0.945 | 0.911 | 0.901 | 1.07 | 0.572 | 0.519 | 0.623 | 0.714 | 0.382 | 0.419 | 0.408 | 0.363 | 0.715 | 0.735 | 0.735 | 0.762
